Results on two compounds are retold here after the NIST ThermoML archive (doi:10.1021/acs.jced.8b00560).

± gives the expanded uncertainty stated by the source.

The conditions of the data set: Crystal; DSC.

For the compound `NC(=O)c1cccnc1` [3-pyridinecarboxamide], the Triple point temperature amounted to 398.5 ± 3.1 K.
`O=C(O)c1ccccc1` [benzoic acid]: the Triple point temperature is on record as 392.5 ± 3.1 K.
